Measured values reported in ChEMBL document CHEMBL5058644, “Data for DCP probe JNJ-39758979” (2022).

Experiments:
[1] = target: T1, Histamine H4 receptor (Homo sapiens, UniProt Q9H3N8); test: Binding assay
[2] = target: T1, Histamine H4 receptor; test: Cell based cAMP Assays (pA2); conditions: read-out: pA2 (converted)

T1 sequence (Q9H3N8 whole entry): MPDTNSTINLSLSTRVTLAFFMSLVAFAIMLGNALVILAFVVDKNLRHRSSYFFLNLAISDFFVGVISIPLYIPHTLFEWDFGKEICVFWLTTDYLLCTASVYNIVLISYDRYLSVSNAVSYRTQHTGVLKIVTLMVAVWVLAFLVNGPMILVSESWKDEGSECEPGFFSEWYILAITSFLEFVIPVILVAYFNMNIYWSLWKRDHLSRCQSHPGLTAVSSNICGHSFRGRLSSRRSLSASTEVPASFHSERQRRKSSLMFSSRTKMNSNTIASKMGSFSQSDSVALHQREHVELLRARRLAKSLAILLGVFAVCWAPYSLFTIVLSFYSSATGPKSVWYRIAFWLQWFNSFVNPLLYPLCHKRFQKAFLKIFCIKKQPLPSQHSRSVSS

CN[C@@H]1CCN(c2cc(C(F)(F)F)nc(N)n2)C1
Ki [1]: > 10 µM (not active)
Kb [2]: > 100 µM (not active)
